The values that follow come from patent US20170152241A9, “BICYCLIC DERIVATIVE CONTAINING PYRIMIDINE RING, AND PREPARATION METHOD THEREFOR” (YUHAN CORPORATION, priority 2013, published 2017).

The structures appear in SMILES notation. pEC50: −log10 of the molar value. Where a name gives a salt, the structure may show the parent alone.

T1 sequence (Q13639 1-387 isoform Q13639-2): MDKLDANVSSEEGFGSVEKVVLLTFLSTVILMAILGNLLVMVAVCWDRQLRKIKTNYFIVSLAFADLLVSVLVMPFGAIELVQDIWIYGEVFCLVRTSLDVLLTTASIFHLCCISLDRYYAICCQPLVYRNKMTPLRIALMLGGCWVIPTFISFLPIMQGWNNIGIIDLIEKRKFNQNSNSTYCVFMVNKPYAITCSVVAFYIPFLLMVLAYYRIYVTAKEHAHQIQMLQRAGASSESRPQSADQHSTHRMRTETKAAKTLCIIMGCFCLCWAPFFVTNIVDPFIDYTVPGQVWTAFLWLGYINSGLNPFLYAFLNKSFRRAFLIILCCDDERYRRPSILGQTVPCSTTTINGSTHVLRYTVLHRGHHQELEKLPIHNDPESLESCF

This assay concerns the target T1, human 5-HT4(a) (Homo sapiens, UniProt Q13639).
T1 construct: host or cells: GeneBlAzer HTR4-CRE-bla CHO-K1 cells
In words: Evaluation of agonistic activity in CHO-K1 cells expressing human 5-HT4(a) (GeneBlAzer HTR4-CRE-bla, beta-lactamase reporter). The conditions noted are these: 5 hours incubation, 8 concentrations. It counts as cell-based. As to the method:
Evaluation of Agonistic Activity in CHO-K1 Cells Expressing Human 5-HT4(a)
As CHO-K1 cells stably expressing human 5-HT4(a), we used the GeneBlAzer HTR4-CRE-bla CHO-K1 cells (Invitrogen corp.). The cells were cultured in DMEM medium supplemented with 10% bovine fetal serum (FBS), 25 mM HEPES (pH 7.4), 600 μg/ml Hygromycin B, 0.1 mM non-essential amino acids, 100 unit/ml penicillin and 100 μg/ml streptomycin under the condition of 37° C. and 5% CO2. Subcultures were performed three times per a week, each being at less than 80% confluence. At the previous day before treating test compounds, the cells were collected by using 0.5% trypsin/EDTA, and then diluted with a DMEM supplemented with 1% FBS, 25 mM HEPES and 0.1 mM non-essential amino acids into 3.125×10^5 cells/ml. 32 μl of the diluted cells were added into 384-well plate (10,000 cells/well) and then incubated overnight. The compounds to be used as a test material and a control drug were prepared as 500× of the various final treating concentrations of the drug with 100% DMSO, and then treated to the medium after diluting them to 100-folds to be 1% of the final DMSO concentration equally. After culturing overnight, 8 μl of the medium having 1% of DMSO was added into the cell-free control well and the non-stimulating control well, respectively. 8 μl of the control drug or the test material (which had been prepared by diluting 100-folds with the medium as mentioned in the above) having 1% of DMSO, were added to the respective remaining wells. After culturing in an incubator for 5 hours, the wells of the 384-plate were treated with the substrate solution (8 μl/well) prepared according to the vendor's instruction (i.e. Invitrogen's instruction), and then incubated in the dark room for additional 2 hours. Agonistic activities on 5-HT4 receptor were evaluated, on the basis of fluorescent values of the cleavage-products, which is generated cAMP-concentration dependently per equal time by beta-lactamase. After exciting to 410 nm of wavelength by using Genios Pro Fluorescence Detector, we measured the fluorescence values at two emission wavelengths (first wavelength: 465 nm, second wavelength: 535 nm). Data were analyzed on the basis of the ratio of fluorescence intensities of each well at the respective wavelengths. For all plates, the concentrations-response curve (1 pM-100 nM) of the control drug (Tegaserod) was included. Each EC50 values of the test compounds were calculated by non-linear regression analysis using GraphPad Prism program, based on the concentration-reactivity values according to 8-different concentrations of the test compounds.
The compound `COc1cc2nc(Nc3cc(N)cc(C(F)(F)F)c3)nc(N3CC[C@H](NC(C)=O)C3)c2cc1OC` [Example 7, (S)—N-{1-(2-[{3-amino-5-(trifluoromethyl)-phenyl}amino]-6,7-dimethoxyquinazolin-4-yl)pyrrolidin-3-yl}acetamide] gave a negative-log EC50 (pEC50) of 10.52.

`COc1ccc2nc(Nc3cc(N)cc(C(F)(F)F)c3)nc(N3CC[C@H](NC(C)=O)C3)c2c1` [Example 14, (S)—N-{1-(2-[{3-amino-5-(trifluoromethyl)-phenyl}amino]-6-methoxyquinazolin-4-yl)pyrrolidin-3-yl}-acetamide]: the pEC50 was 10.70.

Regarding `COc1ccc2nc(Nc3cc(N)cc(C#N)c3)nc(N3CCC[C@@H](NC(C)=O)C3)c2c1` [Example 21, (R)—N-(1-[2-{(3-amino-5-cyanophenyl)-amino}-6-methoxyquinazolin-4-yl]piperidin-3-yl)acetamide], the pEC50 was 11.00.

Take `CC(=O)N[C@H]1CCN(c2nc(Nc3cc(N)cc(C#N)c3)nc3cc(C(F)(F)F)ccc23)C1` [Example 28, (S)—N-(1-[2-{(3-amino-5-cyanophenyl)amino}-7-(trifluoromethyl)quinazolin-4-yl]pyrrolidin-3-yl)-acetamide]: the pEC50 was 9.41.

In turn, `N#Cc1cc(N)cc(Nc2nc(N3CC[C@H](N)C3)c3ccccc3n2)c1` [Example 31, (S)-3-amino-5-{4-(3-aminopyrrolidin-1-yl)-quinazolin-2-ylamino}benzonitrile dihydrochloride] gave a pEC50 of 10.52.

The compound `N#Cc1cc(N)cc(Nc2nc(N3CC[C@H](NC(=O)Cc4cccs4)C3)c3ccccc3n2)c1` [Example 37, (S)—N-[1-{2-(3-amino-5-cyanophenylamino)quinazolin-4-yl}pyrrolidin-3-yl]-2-(thiophen-2-yl)acetamide] showed a pEC50 of 10.52.

For `CCCCCN[C@H]1CCN(c2nc(Nc3cc(N)cc(C#N)c3)nc3ccccc23)C1` [Example 41, (S)-3-amino-5-[4-{3-(pentylamino)-pyrrolidin-1-yl}quinazolin-2-ylamino]benzonitrile], the pEC50 was 11.62.

As to `CC(C)N[C@H]1CCN(c2nc(Nc3cc(N)cc(C#N)c3)nc3ccccc23)C1` [Example 46, (S)-3-amino-5-[4-{3-(isopropylamino)pyrrolidin-1-yl}quinazolin-2-ylamino]benzonitrile], the pEC50 was 10.30.

`COc1cccc2c(N3CCC[C@@H](NC(C)=O)C3)nc(Nc3cc(N)cc(C(F)(F)F)c3)nc12` [Example 64, (R)—N-[1-{2-(3-amino-5-trifluoromethylphenylamino)-8-methoxyquinazolin-4-yl}piperidin-3-yl]acetamide] gave a pEC50 of 10.52.

`CN[C@H]1CCN(c2nc(Nc3cc(N)cc(C#N)c3)nc3cccc(C)c23)C1` [Example 68, (S)-3-amino-5-[5-methyl-4-{3-(methylamino)pyrrolidin-1-yl}quinazolin-2-ylamino]benzonitrile] gave a pEC50 of 10.10.

In turn, `CC(=O)N[C@@H]1CCCN(c2nc(Nc3ccc(N)c(C(F)(F)F)c3)nc3c(C)cccc23)C1` [Example 80, (R)—N-(1-[2-{4-amino-3-(trifluoromethyl)phenylamino}-8-methylquinazolin-4-yl]piperidin-3-yl)acetamide hydrochloride] gave a pEC50 of 10.40.

On to `CC(=O)N[C@H]1CCN(c2nc(Nc3cc(N)cc(C#N)c3)nc3cc(Cl)ccc23)C1` [Example 81, (S)—N-[1-{2-(3-amino-5-cyanophenylamino)-7-chloroquinazolin-4-yl}pyrrolidin-3-yl]acetamide hydrochloride], for which the pEC50 was 10.22.

`CC(=O)N[C@H]1CCN(c2nc(Nc3cc(N)cc(C#N)c3)nc3cc(F)ccc23)C1` [Example 85, (S)—N-[1-{2-(3-amino-5-cyanophenylamino)-7-fluoroquinazolin-4-yl}pyrrolidin-3-yl]acetamide hydrochloride] gave a pEC50 of 10.40.

As to `CC(=O)N[C@H]1CCN(c2nc(Nc3cc(N)cc(C#N)c3)nc3c2CCCC3)C1` [Example 88, (S)—N-[1-{2-(3-amino-5-cyanophenylamino)-5,6,7,8-tetrahydroquinazolin-4-yl}pyrrolidin-3-yl]acetamide], the pEC50 was 11.00.

Take `CCN[C@H]1CCN(c2nc(Nc3cc(N)cc(C#N)c3)nc3c2CCCC3)C1` [Example 105, (S)-3-amino-5-[4-{3-(ethylamino)pyrrolidin-1-yl}-5,6,7,8-tetrahydroquinazolin-2-ylamino]benzonitrile dihydrochloride]: the pEC50 is 11.00.

Compound `CNC(=O)[C@@H]1CCCN(c2nc(Nc3cc(N)cc(C(F)(F)F)c3)nc3c2CCCC3)C1` [Example 123, (R)-1-[2-{3-amino-5-(trifluoromethyl)phenylamino}-5,6,7,8-tetrahydroquinazolin-4-yl]-N-methylpiperidine-3-carboxamide] had a pEC50 of 11.00.

Regarding `CC(=O)N[C@H]1CCN(c2nc(Nc3ccc(Cl)c(N)c3)nc3ccccc23)C1` [Example 133, (S)—N-(1-[2-{(3-amino-4-chlorophenyl)amino}quinazolin-4-yl]pyrrolidin-3-yl)acetamide], the pEC50 was 10.52.

Regarding `CCN[C@H]1CCN(c2nc(Nc3cc(N)cc(C#N)c3)nc3ccccc23)C1` [Example 141, (S)-3-amino-5-([4-{3-(ethylamino)pyrrolidin-1-yl}quinazolin-2-yl]amino)benzonitrile], the negative logarithm of the EC50 (pEC50) is 11.00.

`COc1ccc2c(N3CC[C@H](NC(C)=O)C3)nc(Nc3cc(N)cc(C#N)c3)nc2c1` [Example 147, (S)—N-(1-[2-{(3-amino-5-cyanophenyl)amino}-7-methoxyquinazolin-4-yl]pyrrolidin-3-yl)acetamide] gave a pEC50 of 11.00.

Take `CCCN[C@H]1CCN(c2nc(Nc3cc(N)cc(C#N)c3)nc3cccnc23)C1` [Example 159, (S)-3-amino-5-([4-{3-(propylamino)pyrrolidin-1-yl}pyrido[3,2-d]pyrimidin-2-yl]amino)benzonitrile dihydrochloride]: the pEC50 was 11.00.

Compound `Nc1cc(Nc2nc(N3CCC[C@@H](N)C3)c3ncccc3n2)cc(C(F)(F)F)c1` [Example 167, (R)—N^1-{4-(3-aminopiperidin-1-yl)pyrido[3,2-d]pyrimidin-2-yl}-5-trifluoromethyl)benzene-1,3-diamine dihydrochloride] gave a pEC50 of 10.05.

For the compound `CC(=O)N[C@H]1CCN(c2nc(Nc3cc(N)cc(C#N)c3)nc3c2CCC3)C1` [Example 168, (S)—N-(1-[2-{(3-amino-5-cyanophenyl)amino}-6,7-dihydro-5H-cyclopenta[d]pyrimidin-4-yl]pyrrolidin-3-yl)acetamide hydrochloride], the pEC50 is 11.00.

For the compound `N#Cc1cc(N)cc(Nc2nc3c(c(N4CC[C@H](N)C4)n2)CCC3)c1` [Example 174, (S)-3-amino-5-[{4-(3-aminopyrrolidin-1-yl)-6,7-dihydro-5H-cyclopenta[d]pyrimidin-2-yl}amino]benzonitrile dihydrochloride], the pEC50 was 10.70.

As for `CCCN[C@H]1CCN(c2nc(Nc3cc(N)cc(C#N)c3)nc3c2CCC3)C1` [Example 184, (S)-3-amino-5-([4-{3-(propylamino)pyrrolidin-1-yl}-6,7-dihydro-5H-cyclopenta[d]pyrimidin-2-yl]amino)benzonitrile dihydrochloride], the pEC50 is 11.00.
